# Measurements as given in ChEMBL document CHEMBL3046141, “Partition coefficient determination of a series of isoindolines-2-substituted and its correlation with their antiproliferative activity on HeLa cells” (Med Chem Res, 2013).
# Tests used:
# [1] = tested on: HeLa; assay: Cytotoxicity against Homo sapiens (human) HeLa cells assessed as cell viability after 24 hr by crystal violet staining; assay type: functional, cell-based
# [2] = tested on: HeLa; assay: Cytotoxicity against Homo sapiens (human) HeLa cells assessed as metabolic active cells after 24 hr by MTT assay; assay type: functional, cell-based
# [3] = n-octanol-water partition coefficient, log P of the compound by shake-flask method; assay type: physicochemical
SMILES,logP [3],IC50 [1] [mM],IC50 [2] [mM]
COC(=O)CN1Cc2ccccc2C1,-0.027,3.65,8.23
COC(=O)[C@H](c1ccccc1)N1Cc2ccccc2C1,1.35,5.32,8.25
COC(=O)[C@H](Cc1c[nH]c2ccccc12)N1Cc2ccccc2C1,1.45,8.44,9.71
CC(C)C[C@@H](C(=O)O)N1Cc2ccccc2C1,0.114,4.3,4.56
O=C(O)[C@H](c1ccccc1)N1Cc2ccccc2C1,-0.31,7.07,9.48

# Continued, in another order:
logP [3],SMILES,IC50 [1] [mM],IC50 [2] [mM]
0.065,COC(=O)[C@H](CC(C)C)N1Cc2ccccc2C1,3.16,2.56
-0.229,O=C(O)CN1Cc2ccccc2C1,5.62,8.74
0.347,O=C(O)[C@H](Cc1c[nH]c2ccccc12)N1Cc2ccccc2C1,8.82,7.6
